Measurements as given in patent publication US20260191923A1, “COMPOSITIONS” (GIVAUDAN SA, priority 2022, published 2026).

Columns and labels:
Type in all cases: cell-based
human gut microbiome [1] = assay: Short term colonic simulation (48 hours colonic fermentation): overall fermentative activity, pH and gas production; conditions: pre-digested products, fecal inoculum of a single human donor, triplicate; 0-6 hours; doses of Table 1
Excerpt: (§1) The test products used in these experiments included a red acerola fruit powder containing 20% vitamin C and a green acerola fruit powder containing 34% vitamin C provided by Naturex-Givaudan. Commercial synthetic ascorbic acid and a 55:45 mixture of fructose and glucose served as relevant control groups. The test products contained a fraction of digestible compounds (sugar, for e.g.) that, in vivo, are absorbed in the small intestine following conversion to small molecules by digestive enzymes. […] Stock solutions of test products and controls were prepared and exposed to conditions simulating oral, gastric, and small intestinal passage. Typically, a dialysis procedure is employed to simulate absorption of small molecules in the small intestine, but this step was omitted for these test products, as the dialysis procedure would lead to losses of compounds in acerola (polyphenols) that would reach the colon in vivo and exert an effect on the microbiome. […] Changes in ammonium production were assessed by sampling at the start of incubation and after 48 hours. Analysis of microbial community structure was performed at the start of the incubation and after 48 hours. pH was measured in each reactor at each time point as a single repetition. Gas production was measured in the headspace of the fermentation vessels as a single repetition.

human gut microbiome [2] = assay: Short term colonic simulation: microbial metabolite (SCFA) production by capillary gas chromatography-FID; conditions: 48 hours colonic fermentation; acerola 3.5 g/L, sugar control 1.75 g/L, ascorbic acid 1.67 g/L; FIG. 1
Excerpt: as §1, with “microbiome. A 48 hours colonic fermentation was performed in the presence of test compounds and relevant controls to determine the effect of the test products on the gut microbiome.” for “microbiome.”, “[…] Quantitative analysis” for “Analysis of microbial community structure was performed at the start”, “SCFA” for “incubation and after 48 hours. pH”, “done by means of capillary gas chromatography, coupled with” for “measured in each reactor at each time point as”, “flame ionization detector (FID). […]” for “single repetition. Gas production was measured in the headspace of the fermentation vessels as a single repetition.”

human gut microbiome [3] = assay: Short term colonic simulation: changes in community composition by 16S-targeted Illumina sequencing (heat map, LEfSe, beta diversity); conditions: after 48 hours; ascorbic acid 1.67 g/L; comparator not stated
Excerpt: The test products used in these experiments included a red acerola fruit powder containing 20% vitamin C and a green acerola fruit powder containing 34% vitamin C provided by Naturex-Givaudan. Commercial synthetic ascorbic acid and a 55:45 mixture of fructose and glucose served as relevant control groups. The test products contained a fraction of digestible compounds (sugar, for e.g.) that, in vivo, are absorbed in the small intestine following conversion to small molecules by digestive enzymes. […] Stock solutions of test products and controls were prepared and exposed to conditions simulating oral, gastric, and small intestinal passage. […]
Sampling was performed periodically with a syringe through a rubber septum. […] Changes in ammonium production were assessed by sampling at the start of incubation and after 48 hours. […]
The methodology applied involves primers that span 2 hypervariable regions (V3-V4) of the 16S rRNA gene, i.e. primers 341F-785R described in Bekliz et al (Bekliz, M., Pramateftaki, P., Battin, T. J. et al. Viral diversity is linked to bacterial community composition in alpine stream biofilms. ISME COMMUN. 2, 27 (2022). https://doi.org/10.1038/s43705-022-00112-9). […] Read assembly and cleanup was largely derived from the MiSeq SOP described by the Schloss lab. […]

O=C1O[C@H]([C@@H](O)CO)C(O)=C1O [Ascorbic acid, ascorbic acid] was tested. Which pH shift (human gut microbiome [1]) did it give?
The pH shift was “failed to produce a significant shift in pH”.

What about the propionate production (human gut microbiome [2]) of the same compound?
Its propionate production is “Each product, except ascorbic acid, stimulated propionate production”.

What about the “strongest enrichments (LEfSe), OTUs of the genera/families” value (human gut microbiome [3]) of the same compound?
Its value is “Bacteroides, Lachnoclostridium, GCA-900066575, Anaerostipes, Agathobacter, Oscillibacter, Alistipes, Lachnospiraceae, Flavonifractor, Coprococcus and Blautia”.
